In assay [1] the test system is PKC binding to recombinant RACK1. The experiment in a line: Overlay / overlay-extraction assay: inhibition of PKC binding to recombinant RACK1 by peptides. Also on record: species or system rat. The settings on record: 10 μM peptide preincubated with PKC. On the procedure:
The variation in the overlay protocol consisted of incubating the putative binding peptides with a mixture of PKC isozymes for 15 minutes at room temperature before the mixture was used to contact the nitrocellulose strips containing immobilized RACK1.
Nitrocellulose strips containing immobilized RACK1, that had been contacted with a solution containing a mixture of PKC isozymes, were washed and the area corresponding to the 36 kDa (RACK1-containing) band was cut out. The pieces (containing PKC/RACK1 complexes) were incubated with sample buffer for 10 minutes at 80° C. The sample buffer and the nitrocellulose pieces were then placed in wells in the PAGE gel and subjected to SDS-PAGE to elute the bound proteins. The gel was blotted onto nitrocellulose and a Western blot analysis was carried out using the mixture of antibodies (specific for PKC α, β, γ, δ, ε and ζ isozymes) described in Example 1 part B. Bound antibodies were detected by ^125I-protein A.
Peptides derived from or homologous to WD-40 repeats of RACK1 were tested for their ability to inhibit PKC binding to recombinant RACK1. Binding of PKC to RACK1 was carried out using a variation of the overlay procedure described in Example 3 part B. In the experimental samples, peptides were incubated with a solution containing a mixture of rat brain PKC isozymes (˜10 nM each) for 15 minutes at room temperature.
Following completion of the modified overlay protocol, the samples were subjected to the overlay-extraction protocol detailed in part B, above.
The results in FIG. 3 show the binding of PKC to RACK1, carried out without (lane 1) or with (lanes 2-4) a preincubation of peptides with PKC. […] Peptide I caused an 81±6% inhibition of PKC binding to recombinant RACK1 as compared with binding in the absence of added peptide (n=3). Lanes 3 and 4 show PKC binding following a preincubation with 10 μM peptide rIII (SEQ ID NO:4) and 10 μM peptide rVI (SEQ ID NO:7), respectively. […] The results shown are representative of three independent experiments.

Assay [2] deals with T1, βPKC (Rattus norvegicus, UniProt P68403).
T1 construct: All the solutions contained 5 nM rat brain PKC; from tissue; host or cells: rat brain
The experiment in a line: Sensitivity of βPKC to Arg-C endopeptidase (nicking). It is filed as biochemical. As to conditions: low activators: 2.5 μg/ml PS and 50 μM CaCl2; peptide 10 μM. From the text: Upon activation of PKC, a pseudosubstrate autoinhibitory sequence at the N-terminus of the molecule dissociates from the catalytic site and becomes sensitive to endopeptidase Arg-C (Orr, et al.). In the absence of PKC activators, exposure of the 80 kDa βPKC to endopeptidase Arg-C has no effect on the enzyme (see FIG. 7, lane 1). In the presence of the PKC activators PS, DG and calcium, however, exposure of βPKC to Arg-C results in a “nicking” of the PKC (i.e. limited proteolysis generating a 78 kDa fragment and several small fragments (see FIG. 7, lane 2)). Continued exposure to Arg-C results in the disappearance of βPKC (Orr, et al.). The present experiment tests whether peptides derived from the WD-40 region of RACK1 alter the sensitivity of βPKC to endopeptidase Arg-C.
The methods used to assay Arg-C sensitivity are a modification of methods described by Orr, et al. Rat brain PKC (˜5 nM) was incubated at room temperature in 500 μl of 20 mM Tris-HCl buffer (pH 7.5) alone or with Arg-C (5 units/ml) in the presence or absence of the indicated peptides (final concentration 10 μM or as indicated), PS, DG, and calcium (as indicated). 50 μl aliquots were removed into 20 μl of sample buffer during the reaction as indicated (samples in all the lanes were incubated for 30 minutes , except lanes 5, and 6, which were incubated for 5 and 15 minutes, respectively). The samples were boiled for 10 minutes at 80° C. and loaded onto 8% SDS-PAGE. βPKC was detected by Western blot analysis using anti-βPKC antibodies as described in Examples 6 and 8.
PKC was incubated for the indicated time alone (lane 1) or in the presence of Arg-C (lanes 2-9), with DG (0.8 μg/ml), PS (50 μg/ml) and CaCl2 (1 mM; lane 2), with PS (50 μg/ml) and CaCl2 (1 mM; lane 3), with PS (2.5 μg/ml) and CaCl2 (50 μM; lane 4); with PS (2.5 μg/ml), CaCl2 (50 μM) and with either peptide rVI (SEQ ID NO:7; 10 μM; lanes 5-7), control peptide (SEQ ID NO:9; lane 8) or with peptide I (SEQ ID NO:1; lane 9).

In assay [3] the test system is Xenopus oocytes. The experiment in a line: PKC-mediated Xenopus oocyte maturation (germinal vesicle breakdown, GVBD) after peptide microinjection. The class given is cell-based. As to conditions: for plateau % GVBD (fraction of oocytes reaching maturation) following insulin exposure: peptide 50 μM, 50 nl microinjected, 20 h time course. On the procedure: Exposure to insulin induces maturation in Xenopus oocytes via a PKC-dependent pathway (Smith, et al., 1992). The maturation response may be quantified by monitoring the appearance of a white spot in the animal hemisphere of the oocyte, indicating germinal vesicle breakdown (GVBD) and maturation. To assess the effects of RACK1 WD-40-derived peptides on insulin-induced PKC-mediated maturation, 50 nl of a 20 mM NaCl solution containing the indicated peptides [peptide I (SEQ ID NO:1; ●), peptide rVI (SEQ ID NO:7; ▪), or injection solution (□)] (peptides at 50 μM) were microinjected into Xenopus oocytes. […] One hour following the peptide injections, the oocytes were exposed to a solution containing insulin (8.25 μg/ml) for 2 minutes (t=0). 10-15 oocytes were used for each sample.
The data, representative of three independent experiments, are expressed as the percent of oocytes with GVBD following insulin exposure and are plotted as a function of time in FIG. 5.

Assay [4] relates to PKC. The experiment in a line: Histone type IIIs phosphorylation by PKC. It is filed as biochemical. As to conditions: absence of PS, DG and calcium; peptide 10 μM. As to the method: Histone type IIIs (Sigma Chemical Company, St. Louis, Mo.) was phosphorylated by PKC (˜10 nM) in the absence (lane 1) and presence of peptide rVI (10 μM) (lanes 2 and 3) and in the presence and absence of DG (0.8 μg/ml), PS (50 μg/ml) and CaCl2 (1 mM) (lane 3). The results are expressed as percentage of control that is the amount of Histone phosphorylation by PKC in the presence of DG (0.8 μg/ml), PS (50 μg/ml) and CaCl2 (1 mM). The results are the average ± SEM of two independent experiments. PKC was first incubated with the peptide rVI (10 μM) for 15 minutes in overlay buffer as described above. Histone type IIIs (40 μg/ml) was added in Tris-HCl (20 mM), MgCl2 (20 mM), ATP (20 μM) and ([γ-^32P]ATP (5 μci/ml) with or without PS (50 μg/ml), DG (0.8 μg/ml) and CaCl2 (1 mM). Histone phosphorylation was determined by autoradiography as above.

Assay [5] has as its system δ and εPKC isozymes. The experiment in a line: PKC isozyme translocation and degradation in cardiac myocytes. The class given is cell-based, rat. On the procedure:
In cardiac myocytes, norepinephrine (NE, 2 μM) causes translocation of δ and εPKC isozymes from the cytosolic to the particulate fraction. […] This peptide-induced translocation was followed by degradation of δ and εPKC isozymes.

The test system of assay [6] is PKC. The experiment in a line: PKC autophosphorylation. It is filed as biochemical, rat. The settings on record: peptide 10 μM; absence of PKC activators. On the procedure: Rat brain PKC (˜10 nM) was incubated with mild agitation in a final volume of 250 μl of overlay buffer, as in Example 1 either with anti-βPKC pseudosubstrate antibodies (1:10 dilution, Life Technologies, Gaithersburg, Md.) or with the indicated peptide (10 μM). Where indicated, PS (50 μg/ml), DG (0.8 μg/ml) and CaCl2 (1 mM) were also added. The amount of autophosphorylation was determined after 2 hours for the reaction with the anti-pseudosubstrate antibodies, or after 15 minutes for the other samples. 50 μl of a buffer comprised of 20 mM Tris-HCl (pH 7.5), 20 mM MgCl2, 20 μM ATP and 5 μci/ml [γ-^32P]ATP. The mixture was incubated for 15 minutes at room temperature and the reaction was stopped by adding 60 μl sample buffer (see Example 9). The samples were then boiled for 10 minutes, loaded onto a 10% SDS-PAGE mini gel and electrophoresed. The gel was fixed with 50% methanol and 10% acetic acid for 1 hour, and the autophosphorylation of PKC was determined by autoradiography.
The results in FIG. 8 show PKC autophosphorylation in the presence of DG, PS, and calcium (lane 1), in the presence of EGTA (lane 2), in the presence of anti-βPKC pseudosubstrate antibodies (diluted 1:10 in 20 mM Tris-HCl; lane 3), in the presence of peptide rVI (SEQ ID NO:7; 10 μM; lane 4), in the presence of peptide I (SEQ ID NO:1; 10 μM; lane 5), or in the presence of control peptide (SEQ ID NO:9; 10 μM; lane 6).

The mark [7] stands for this setting: peptide introduced into cardiac myocytes.
Setting [8] is: peptide 50 μM microinjected, insulin 8.25 μg/ml.

Entries after “also recorded” stand apart in the source; their conditions may differ.

T1 sequence (P68403 whole entry): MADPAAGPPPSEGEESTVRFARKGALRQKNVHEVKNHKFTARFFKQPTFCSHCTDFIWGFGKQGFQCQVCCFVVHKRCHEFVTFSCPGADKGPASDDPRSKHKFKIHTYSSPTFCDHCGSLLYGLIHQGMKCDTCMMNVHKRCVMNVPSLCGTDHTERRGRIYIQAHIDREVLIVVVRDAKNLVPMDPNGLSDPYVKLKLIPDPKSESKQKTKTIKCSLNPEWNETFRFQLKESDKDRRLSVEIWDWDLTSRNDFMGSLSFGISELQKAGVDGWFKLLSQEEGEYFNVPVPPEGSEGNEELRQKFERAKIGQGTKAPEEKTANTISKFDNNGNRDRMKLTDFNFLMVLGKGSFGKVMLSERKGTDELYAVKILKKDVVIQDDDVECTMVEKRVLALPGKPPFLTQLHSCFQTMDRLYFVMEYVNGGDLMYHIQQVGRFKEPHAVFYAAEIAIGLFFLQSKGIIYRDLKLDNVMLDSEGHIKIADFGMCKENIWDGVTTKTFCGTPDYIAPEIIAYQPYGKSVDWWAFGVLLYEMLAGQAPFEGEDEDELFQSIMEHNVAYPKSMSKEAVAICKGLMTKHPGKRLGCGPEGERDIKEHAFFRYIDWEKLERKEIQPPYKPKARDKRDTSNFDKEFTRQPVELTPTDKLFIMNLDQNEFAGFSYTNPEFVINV

In the case of “rIV: synthetic peptide based on the corresponding region of RACK1 WD-40 repeat IV (VSCVRFS)”, the “inhibition of PKC binding to RACK1 (in words)” value (shortened to “inhibition of PKC binding”) in assay [1] is on record as “lesser inhibitory effect”.

Consider “peptide rI: synthetic peptide based on the corresponding region of RACK1 WD-40 repeat I (VTQIATT)”, for which the “inhibition of PKC binding” value in assay [1] was “effective inhibitors”.

On to “peptide rVII: synthetic peptide based on the corresponding region of RACK1 WD-40 repeat VII (PQCTSLA)”, for which the “inhibition of PKC binding” value in assay [1] is “no inhibition”.

Turning to “peptide rIII: seven amino acid peptide identical to a segment of RACK1 WD-40 repeat III (DVLSVAF)”, the “inhibition of PKC binding” value in assay [1] is listed as “inhibit the binding of PKC to RACK1; also recorded: somewhat more effective than peptide rVI”. Besides, in assay [2], the “nicking of βPKC by Arg-C (78 kDa fragment)” value is “appearance of the 78 kDa nicked PKC fragment”. Further, the “effect on insulin-induced oocyte maturation (in words)” value in assay [3] (at 50 and 500 μM) is given as “enhances insulin-induced oocyte maturation”. Besides, in assay [3] (insulin 8.25 μg/ml), the “plateau % GVBD (fraction of oocytes reaching maturation) following insulin exposure” value is listed as about 100%. Further, the “effect on insulin-induced oocyte maturation (in words)” value in assay [3] (peptide microinjected, insulin) is recorded as “potentiated the effects of insulin on oocyte maturation”. The “induction of PKC-mediated histone phosphorylation” value in assay [4] is on record as “similarly induced histone phosphorylation”. The “NE-induced translocation of δ and εPKC” value in assay [5] (norepinephrine 2 μM) is on record as “further enhanced”. Also, in assay [5] (setting [7]), the “degradation of PKC isozymes” value is “followed by degradation of these activated isozymes; also recorded: accelerated the degradation of PKC”; the “translocation / distribution of δ and εPKC isozymes in the absence of hormone stimulation” value is recorded as “caused an immediate translocation”.

For “peptide rII: synthetic peptide based on the corresponding region of RACK1 WD-40 repeat II (FVSDVVI)”, the “inhibition of PKC binding” value in assay [1] is recorded as “effective inhibitors”.

Consider “control peptide: control peptide (SEQ ID NO:9) (LKGKIL) [reference compound]”, for which the “nicking of βPKC by Arg-C (78 kDa fragment)” value in assay [2] is “did not result in appreciable nicking activity; also recorded: did not occur”. The “induction of PKC autophosphorylation (in words)” value in assay [6] is listed as “No autophosphorylation; also recorded: Neither peptide I nor control peptide induced PKC autophosphorylation”. Further, in assay [3] (setting [8]), the “delay to onset of maturation after exposure to insulin” value was 4 to 5 h and the “time to reach GVBD plateau after insulin exposure” value lay in the range of 10 to 12 h. For the same substance, the “plateau % GVBD (fraction of oocytes reaching maturation) following insulin exposure” value in assay [3] (insulin 8.25 μg/ml) is reported as 85-90%.

In the case of “peptide rV: synthetic peptide based on the corresponding region of RACK1 WD-40 repeat V (GYLNTVT)”, the “inhibition of PKC binding” value in assay [1] is recorded as “lesser inhibitory effect”.

Source of the values: patent US6342368B1, “WD-40-derived peptides and uses thereof” (The Board of Trustees of the Leland Stanford Junior …, priority 1994, dated 2002).
